Test results: patent US5635483A, “Tumor inhibiting tetrapeptide bearing modified phenethyl amides” (priority 1992, dated 1997)

Assays:
Assay type in all cases: cell-based
human cancer cell line = experiment: Human cancer cell line activity compared with Dolastatin 10; details: R-dolaphenine (Doe) substitution
Description: A series of Dolastatin 10 chiral isomers has been documented (See: Pettit et al., J. Med. Chem., 1990, 33, 3132). More recently these experiments were extended to synthesis of R-Doe-isodolastatin 10. […] The amide molecular length was then examined, starting with benzylamine, phenethylamine and 3-phenyl-1-propylamine. Also studied was a systematic series of modifications at the dolaphenine position introducing a substituted nitrogen instead of a phenyl ring.

P-388 = experiment: Murine P388 lymphocytic leukemia cell growth inhibition; details: Mouse leukemia cell P-388
Description: (§1) The extraordinary inhibition of cell growth shown by the tetrapeptide 6a-k against six major types of human cancer and against the murine P388 lymphocytic leukemia cell line has been presented in Table 1-2, below.

OVCAR-3 = experiment: NCI human tumor cell line screen, ovarian OVCAR-3; details: for GI-50 / TGI: Human cancer cell; for LC-50: Human cancer cells
Description: (§2) Current research in the control of cancer in the United States is coordinated by the National Cancer Institute (NCI). To determine whether a substance has anti-cancer properties, the NCI has established a systematic protocol. […] The protocol, and the established statistical means for analyzing the results obtained by the standardized testing are fully described in the literature. See: Body, Dr. Michael R., Principles & Practice of Oncology, PPO Updates, Volume 3, Number 10, October 1989, for an in depth description of the testing protocol; and Paull, K. D., "Display and Analysis of Patterns of Differential Activity of Drugs Against Human Tumor Cell Lines; Development of Mean Graph and COMPARE Algorithm", Journal of the National Cancer Institute Reports, Vol. 81, No. 14, Page 1088, Jul. 14, 1989 for a description of the methods of statistical analysis. Both of these references are incorporated herein by this reference thereto.

SF-295 = experiment: NCI human tumor cell line screen, CNS SF-295; details: for GI-50 / TGI: Human cancer cell; for LC-50: Human cancer cells
Description: (§3) Current research in the control of cancer in the United States is coordinated by the National Cancer Institute (NCI). To determine whether a substance has anti-cancer properties, the NCI has established a systematic protocol. This protocol, which involves the testing of a substance against a standard cell line panel containing 60 human tumor cell lines, has been verified and has been accepted in scientific circles. The protocol, and the established statistical means for analyzing the results obtained by the standardized testing are fully described in the literature. See: Body, Dr. Michael R., Principles & Practice of Oncology, PPO Updates, Volume 3, Number 10, October 1989, for an in depth description of the testing protocol; and Paull, K. D., "Display and Analysis of Patterns of Differential Activity of Drugs Against Human Tumor Cell Lines; Development of Mean Graph and COMPARE Algorithm", Journal of the National Cancer Institute Reports, Vol. 81, No. 14, Page 1088, Jul. 14, 1989 for a description of the methods of statistical analysis. Both of these references are incorporated herein by this reference thereto.
as §1

A498 = experiment: NCI human tumor cell line screen, renal A498; details: for GI-50 / TGI: Human cancer cell; for LC-50: Human cancer cells
Description: as §2

NCI-460 = experiment: NCI human tumor cell line screen, Lung-NSC NCI-460; details: for GI-50 / TGI: Human cancer cell; for LC-50: Human cancer cells
Description: as §2

KM20L2 = experiment: NCI human tumor cell line screen, colon KM20L2; details: for GI-50 / TGI: Human cancer cell; for LC-50: Human cancer cells
Description: as §2

SK-MEL-3 = experiment: NCI human tumor cell line screen, melanoma SK-MEL-3; details: for GI-50 / TGI: Human cancer cell; for LC-50: Human cancer cells
Description: as §3, §1

## R-Doe-isodolastatin 10
Human cancer cell line
  human cancer cell line activity when compared with Dolastatin 10: does not result in any significant difference

## [2S-[1[1R*(R*),2S*],2R*[1S*,2S*]]]-N,N-dimethyl-L-valyl-N-[2-methoxy-4-[2-[1-methoxy-2-methyl-3-oxo-3-[[2-(2-chlor-phenyl)-ethyl]amino]propyl]-1-pyrrolidinyl-1-(methylpropyl)-4-oxo butyl]-N-methyl-L-valineamide [Peptide 6g]
P-388
  ED-50: 0.000289 µg/mL
OVCAR-3
  GI-50: < 0.000001 µg/mL
  TGI: < 0.001 ng/mL
  LC-50: > 0.01 µg/mL
SF-295
  GI-50: < 0.000001 µg/mL
  TGI: > 10 ng/mL
  LC-50: > 0.01 µg/mL
A498
  GI-50: < 0.000001 µg/mL
  TGI: 2 ng/mL
  LC-50: > 0.01 µg/mL
NCI-460
  GI-50: < 0.000001 µg/mL
  TGI: 0.11 ng/mL
  LC-50: > 0.01 µg/mL
KM20L2
  GI-50: < 0.000001 µg/mL
  TGI: 0.38 ng/mL
  LC-50: > 0.01 µg/mL
SK-MEL-3
  GI-50: < 0.000001 µg/mL
  TGI: > 10 ng/mL
  LC-50: > 0.01 µg/mL

## [2S-[1[1R*(R*),2S*],2R*[1S*,2S*, 3(1R*, 2S*)]]]-N,N-dimethyl-L-valyl-N-[2-methoxy-4-[2-[1-methoxy-2- methyl-3-oxo-3-[[1-phenyl-1-hydroxy-2-propyl]amino]propyl]-1-pyrrolidinyl- 1-(methylpropyl)-4-oxobutyl]-N-methyl-L-valine amide [Peptide 6i]
P-388
  ED-50: 0.000503 µg/mL
OVCAR-3
  GI-50: 0.000021 µg/mL
  TGI: 0.042 ng/mL
  LC-50: 0.000088 µg/mL
SF-295
  GI-50: 0.000016 µg/mL
  TGI: 0.24 ng/mL
  LC-50: > 0.01 µg/mL
A498
  GI-50: 0.0000027 µg/mL
  TGI: 0.0086 ng/mL
  LC-50: 0.00029 µg/mL
NCI-460
  GI-50: 0.000025 µg/mL
  TGI: > 10 ng/mL
  LC-50: > 0.01 µg/mL
KM20L2
  GI-50: 0.00011 µg/mL
  TGI: 7 ng/mL
  LC-50: > 0.01 µg/mL
SK-MEL-3
  GI-50: 0.00058 µg/mL
  TGI: > 10 ng/mL
  LC-50: > 0.01 µg/mL
